Measured values from paper PMC9250534, “Synthesis and direct assay of large macrocycle diversities by combinatorial late-stage modification at picomole scale” (Nature Communications, 2022).

Target: MDM2 (Homo sapiens, UniProt Q00987)
Assay: MDM2 binding screen of Libraries 3 and 4: displacement of fluorescent probe F-M8 at 750 nM macrocycle
Conditions: Panel b, Library 3: 63 scaffolds combinatorially acylated with 15 carboxylic acids at 30 picomole scale; displacement of fluorescent peptide probe; macrocycle 750 nM
How it was run: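 Cyclic peptide scaffolds were acylated in DMSO with carboxylic acids (20 equiv.), HBTU and DABCO for 6 h at room temperature. Reactions were quenched overnight in 100 mM Tris-Cl pH 7.4, 0.01% Tween20. The fluorescein conjugate was also competed with nutlin-3a.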

MDM2, sequence (Q00987 whole entry): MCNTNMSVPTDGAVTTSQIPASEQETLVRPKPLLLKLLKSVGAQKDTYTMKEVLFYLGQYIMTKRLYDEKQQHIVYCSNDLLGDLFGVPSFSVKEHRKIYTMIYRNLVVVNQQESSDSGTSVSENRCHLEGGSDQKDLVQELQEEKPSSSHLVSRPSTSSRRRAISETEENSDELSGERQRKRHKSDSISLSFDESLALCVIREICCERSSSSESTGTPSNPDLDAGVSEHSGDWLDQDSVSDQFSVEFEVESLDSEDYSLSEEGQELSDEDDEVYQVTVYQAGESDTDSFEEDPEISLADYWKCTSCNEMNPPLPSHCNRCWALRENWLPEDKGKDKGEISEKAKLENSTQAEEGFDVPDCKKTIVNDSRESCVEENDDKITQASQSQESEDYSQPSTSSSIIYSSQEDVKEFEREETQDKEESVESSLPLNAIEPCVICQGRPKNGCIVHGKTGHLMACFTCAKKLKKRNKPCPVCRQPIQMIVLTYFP

| fraction of fluorescent probe displaced | SMILES |
| --- | --- |
| 0.021 | O=C(/C=C/c1ccc2ccccc2c1)NC[C@H]1NC(=O)[C@@H]2CN(CCO2)C(=O)CCSSCCNC(=O)[C@H](Cc2ccc3ccccc3c2)NC1=O [X-Cop-D-Dap-2-Nal + Acid 112] |
| -0.00533 | O=C(CCS(=O)(=O)c1ccccc1)NC[C@H]1NC(=O)[C@@H]2CN(CCO2)C(=O)CCSSCCNC(=O)[C@H](Cc2ccc3ccccc3c2)NC1=O [X-Cop-D-Dap-2-Nal + Acid 114] |
| -0.00533 | O=C(NC[C@H]1NC(=O)[C@@H]2CN(CCO2)C(=O)CCSSCCNC(=O)[C@H](Cc2c[nH]c3cc(Cl)ccc23)NC1=O)c1ccc(Cl)s1 [X-Cop-D-Dap-Cl-Trp + Acid 14] |
| 0.035 | O=C(/C=C/c1ccc(OCc2ccccc2)cc1)NC[C@H]1NC(=O)[C@@H]2CN(CCO2)C(=O)CCSSCCNC(=O)[C@H](Cc2c[nH]c3cc(Cl)ccc23)NC1=O [X-Cop-D-Dap-Cl-Trp + Acid 110] |
| 0.055 | O=C(/C=C/c1ccc2ccccc2c1)NC[C@H]1NC(=O)[C@@H]2CN(CCO2)C(=O)CCSSCCNC(=O)[C@H](Cc2c[nH]c3cc(Cl)ccc23)NC1=O [X-Cop-D-Dap-Cl-Trp + Acid 112] |
| 0.015 | O=C(/C=C/c1ccc(OCc2ccccc2)cc1)NC[C@H]1NC(=O)[C@@H]2CN(CCO2)C(=O)CCSSCCNC(=O)[C@@H](Cc2c[nH]c3ccccc23)NC1=O [X-Cop-D-Dap-D-Trp + Acid 110] |
| 0.021 | O=C(/C=C/c1ccc2ccccc2c1)NC[C@H]1NC(=O)[C@@H]2CN(CCO2)C(=O)CCSSCCNC(=O)[C@@H](Cc2c[nH]c3ccccc23)NC1=O [X-Cop-D-Dap-D-Trp + Acid 112] |
| 0.008 | CC(Oc1cccc(Cl)c1)C(=O)NCC1NC(=O)C2CN(CCO2)C(=O)CCSSCCNC(=O)C(Cc2c[nH]c3ccccc23)NC1=O [X-Cop-D-Dap-D-Trp + Acid 113] |
| -0.00533 | Cn1cc(C[C@@H]2NC(=O)[C@@H](CNC(=O)c3ccc(Cl)s3)NC(=O)[C@@H]3CN(CCO3)C(=O)CCSSCCNC2=O)c2ccccc21 [X-Cop-D-Dap-Me-Trp + Acid 14] |
| 0.050 | Cn1cc(C[C@@H]2NC(=O)[C@@H](CNC(=O)c3ccc4ccccc4c3)NC(=O)[C@@H]3CN(CCO3)C(=O)CCSSCCNC2=O)c2ccccc21 [X-Cop-D-Dap-Me-Trp + Acid 107] |
| 0.021 | Cn1cc(C[C@@H]2NC(=O)[C@@H](CNC(=O)/C=C/c3ccc(Cl)cc3)NC(=O)[C@@H]3CN(CCO3)C(=O)CCSSCCNC2=O)c2ccccc21 [X-Cop-D-Dap-Me-Trp + Acid 108] |
| 0.028 | Cn1cc(CC2NC(=O)C(CNC(=O)C=Cc3ccc(OCc4ccccc4)cc3)NC(=O)C3CN(CCO3)C(=O)CCSSCCNC2=O)c2ccccc21 [X-Cop-D-Dap-Me-Trp + Acid 110] |
| -0.019 | CN1C(=O)[C@@H](CNC(=O)c2ccc(Cl)s2)NC(=O)[C@@H]2CN(CCO2)C(=O)CCSSCCNC(=O)[C@@H]1Cc1c[nH]c2ccccc12 [X-Cop-D-Dap-NMe-Trp + Acid 14] |
| -0.019 | CN1C(=O)[C@@H](CNC(=O)c2ccc(Cl)cc2)NC(=O)[C@@H]2CN(CCO2)C(=O)CCSSCCNC(=O)[C@@H]1Cc1c[nH]c2ccccc12 [X-Cop-D-Dap-NMe-Trp + Acid 25] |
| 0.008 | CN1C(=O)[C@@H](CNC(=O)/C=C/c2ccc(Cl)cc2)NC(=O)[C@@H]2CN(CCO2)C(=O)CCSSCCNC(=O)[C@@H]1Cc1c[nH]c2ccccc12 [X-Cop-D-Dap-NMe-Trp + Acid 108] |
| 0.015 | CN1C(=O)[C@@H](CNC(=O)/C=C/c2ccc(OCc3ccccc3)cc2)NC(=O)[C@@H]2CN(CCO2)C(=O)CCSSCCNC(=O)[C@@H]1Cc1c[nH]c2ccccc12 [X-Cop-D-Dap-NMe-Trp + Acid 110] |
| 0.00133 | CN1C(=O)C(CNC(=O)c2cccc(Oc3ccccc3)c2)NC(=O)C2CN(CCO2)C(=O)CCSSCCNC(=O)C1Cc1c[nH]c2ccccc12 [X-Cop-D-Dap-NMe-Trp + Acid 111] |
| 0.035 | CN1C(=O)[C@@H](CNC(=O)/C=C/c2ccc3ccccc3c2)NC(=O)[C@@H]2CN(CCO2)C(=O)CCSSCCNC(=O)[C@@H]1Cc1c[nH]c2ccccc12 [X-Cop-D-Dap-NMe-Trp + Acid 112] |
| 0.00133 | O=C(NC[C@H]1NC(=O)[C@@H]2CN(CCO2)C(=O)CCSSCCNC(=O)[C@H](Cc2c[nH]c3ccccc23)NC1=O)c1ccc(Cl)cc1 [X-Cop-D-Dap-Trp + Acid 25] |

| fraction of fluorescent probe displaced | SMILES |
| --- | --- |
| 0.021 | O=C(C=Cc1ccc(Cl)cc1)NCC1NC(=O)C2CN(CCO2)C(=O)CCSSCCNC(=O)C(Cc2c[nH]c3ccccc23)NC1=O [X-Cop-D-Dap-Trp + Acid 108] |
| -0.00533 | O=C(/C=C/c1ccc(OCc2ccccc2)cc1)NC[C@H]1NC(=O)[C@@H]2CN(CCO2)C(=O)CCSSCCNC(=O)[C@H](Cc2c[nH]c3ccccc23)NC1=O [X-Cop-D-Dap-Trp + Acid 110] |
| 0.015 | O=C(NC[C@H]1NC(=O)[C@@H]2CN(CCO2)C(=O)CCSSCCNC(=O)[C@H](Cc2c[nH]c3ccccc23)NC1=O)c1cccc(Oc2ccccc2)c1 [X-Cop-D-Dap-Trp + Acid 111] |
| 0.008 | O=C(NC[C@H]1NC(=O)[C@@H]2CN(CCO2)C(=O)CCSSCCNC(=O)[C@H](Cc2c[nH]c3ccccc23)NC1=O)C1COc2ccccc2O1 (stereo partly drawn) [X-Cop-D-Dap-Trp + Acid 115] |
| 0.008 | O=C(NC[C@@H]1NC(=O)[C@@H]2CN(CCO2)C(=O)CCSSCCNC(=O)[C@H](Cc2cccc3ccccc23)NC1=O)c1ccc(Cl)s1 [X-Cop-Dap-1-NaI + Acid 14] |
| -0.012 | O=C(NCC1NC(=O)C2CN(CCO2)C(=O)CCSSCCNC(=O)C(Cc2cccc3ccccc23)NC1=O)c1ccc(Cl)cc1 (stereo not drawn) [X-Cop-Dap-1-NaI + Acid 25] |
| 0.021 | O=C(/C=C/c1ccc2ccccc2c1)NC[C@@H]1NC(=O)[C@@H]2CN(CCO2)C(=O)CCSSCCNC(=O)[C@H](Cc2cccc3ccccc23)NC1=O [X-Cop-Dap-1-NaI + Acid 112] |
| 0.021 | O=C(CCS(=O)(=O)c1ccccc1)NC[C@@H]1NC(=O)[C@@H]2CN(CCO2)C(=O)CCSSCCNC(=O)[C@H](Cc2cccc3ccccc23)NC1=O [X-Cop-Dap-1-NaI + Acid 114] |
| 0.041 | O=C(NC[C@@H]1NC(=O)[C@@H]2CN(CCO2)C(=O)CCSSCCNC(=O)[C@H](Cc2ccc3ccccc3c2)NC1=O)c1ccc(Cl)cc1 [X-Cop-Dap-2-Nal + Acid 25] |
| 0.035 | O=C(/C=C/c1ccc(OCc2ccccc2)cc1)NC[C@@H]1NC(=O)[C@@H]2CN(CCO2)C(=O)CCSSCCNC(=O)[C@H](Cc2ccc3ccccc3c2)NC1=O [X-Cop-Dap-2-Nal + Acid 110] |
| 0.008 | O=C(NCC1NC(=O)C2CN(CCO2)C(=O)CCSSCCNC(=O)C(Cc2ccc3ccccc3c2)NC1=O)c1cccc(Oc2ccccc2)c1 (stereo not drawn) [X-Cop-Dap-2-Nal + Acid 111] |
| -0.00533 | O=C(CCS(=O)(=O)c1ccccc1)NC[C@@H]1NC(=O)[C@@H]2CN(CCO2)C(=O)CCSSCCNC(=O)[C@H](Cc2ccc3ccccc3c2)NC1=O [X-Cop-Dap-2-Nal + Acid 114] |
| 0.128 | O=C(NC[C@@H]1NC(=O)[C@@H]2CN(CCO2)C(=O)CCSSCCNC(=O)[C@H](Cc2c[nH]c3cc(Cl)ccc23)NC1=O)c1ccc(Cl)s1 [X-Cop-Dap-Cl-Trp + Acid 14] |
| 0.088 | O=C(NCC1NC(=O)C2CN(CCO2)C(=O)CCSSCCNC(=O)C(Cc2c[nH]c3cc(Cl)ccc23)NC1=O)c1ccc(Cl)cc1 (stereo not drawn) [X-Cop-Dap-Cl-Trp + Acid 25] |
| 0.284 | O=C(C=Cc1ccncc1)NCC1NC(=O)C2CN(CCO2)C(=O)CCSSCCNC(=O)C(Cc2c[nH]c3cc(Cl)ccc23)NC1=O (stereo not drawn) [X-Cop-Dap-Cl-Trp + Acid 106] |
| 0.102 | O=C(NC[C@@H]1NC(=O)[C@@H]2CN(CCO2)C(=O)CCSSCCNC(=O)[C@H](Cc2c[nH]c3cc(Cl)ccc23)NC1=O)c1ccc2ccccc2c1 [X-Cop-Dap-Cl-Trp + Acid 107] |
| 0.075 | O=C(C=Cc1ccc(Cl)cc1)NCC1NC(=O)C2CN(CCO2)C(=O)CCSSCCNC(=O)C(Cc2c[nH]c3cc(Cl)ccc23)NC1=O (stereo not drawn) [X-Cop-Dap-Cl-Trp + Acid 108] |
| 0.021 | O=C(/C=C/c1ccc(OCc2ccccc2)cc1)NC[C@@H]1NC(=O)[C@@H]2CN(CCO2)C(=O)CCSSCCNC(=O)[C@H](Cc2c[nH]c3cc(Cl)ccc23)NC1=O [X-Cop-Dap-Cl-Trp + Acid 110] |
| -0.039 | O=C(CCS(=O)(=O)c1ccccc1)NC[C@@H]1NC(=O)[C@@H]2CN(CCO2)C(=O)CCSSCCNC(=O)[C@H](Cc2c[nH]c3cc(Cl)ccc23)NC1=O [X-Cop-Dap-Cl-Trp + Acid 114] |

Same assay, conditions: Panel c, Library 4: best nine scaffolds and 15 additional carboxylic acids; displacement of fluorescent probe

| fraction of fluorescent probe displaced | SMILES |
| --- | --- |
| 0.175 | CCOc1ccc(/C=C/C(=O)NC[C@@H]2NC(=O)[C@@H]3CN(CCO3)C(=O)CCSSCCNC(=O)[C@H](Cc3c[nH]c4cc(Cl)ccc34)NC2=O)cc1 [X-Cop-Dap-Cl-Trp + Acid 117] |
| 0.126 | O=C(/C=C/c1ccc(Cl)c(Cl)c1)NC[C@@H]1NC(=O)[C@@H]2CN(CCO2)C(=O)CCSSCCNC(=O)[C@H](Cc2c[nH]c3cc(Cl)ccc23)NC1=O [X-Cop-Dap-Cl-Trp + Acid 119] |
| 0.012 | C/C(=C\c1ccccc1)C(=O)NC[C@@H]1NC(=O)[C@@H]2CN(CCO2)C(=O)CCSSCCNC(=O)[C@H](Cc2c[nH]c3cc(Cl)ccc23)NC1=O [X-Cop-Dap-Cl-Trp + Acid 123] |
| 0.085 | CC(C)c1ccc(/C=C/C(=O)NC[C@@H]2NC(=O)[C@@H]3CN(CCO3)C(=O)CCSSCCNC(=O)[C@H](Cc3c[nH]c4cc(Cl)ccc34)NC2=O)cc1 [X-Cop-Dap-Cl-Trp + Acid 127] |
